Biological target: human P2X3 receptor (Homo sapiens (Human), UniProt P56373)
Experiment: Evaluation of human P2X3 receptor inhibitory activity (Test Example 1)
Assay type: cell-based
Settings: C6BU-1 cell transfected with human P2X3 receptor gene, FLIPR 384
How it was run: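 FLIPR calcium read-out: signal taken as peak fluorescence after ATP addition divided by starting fluorescence, and IC50 calculated from it. Compound added 5 min before 150 nM ATP solution (pre-dispense stock) to Fluo-3-AM-loaded C6BU-1 cells stably transfected with human P2X3; HEPES buffer pH 7.5 with probenecid.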

Chain of human P2X3 receptor (P56373 whole entry): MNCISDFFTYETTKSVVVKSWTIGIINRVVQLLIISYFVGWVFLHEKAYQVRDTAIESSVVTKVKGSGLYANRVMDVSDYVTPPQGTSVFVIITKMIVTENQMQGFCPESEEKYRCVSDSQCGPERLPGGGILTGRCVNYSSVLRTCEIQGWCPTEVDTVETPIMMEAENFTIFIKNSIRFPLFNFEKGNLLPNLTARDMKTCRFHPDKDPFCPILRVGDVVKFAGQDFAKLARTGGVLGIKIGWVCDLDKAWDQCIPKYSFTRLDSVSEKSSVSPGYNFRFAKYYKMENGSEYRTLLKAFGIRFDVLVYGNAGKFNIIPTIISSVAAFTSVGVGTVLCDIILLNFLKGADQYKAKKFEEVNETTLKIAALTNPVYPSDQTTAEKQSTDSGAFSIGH

Row | SMILES | IC50
1 | COC(=O)[C@H](C)[C@H](C)n1c(=O)[nH]/c(=N\c2ccc(Oc3cncc(F)c3)c(C)c2)n(Cc2ccc(Cl)cc2)c1=O [Compound R-186] | 26 nM
2 | COC(=O)[C@H](C)[C@H](C)n1c(=O)[nH]/c(=N\c2ccc(Oc3cncc(F)c3)c(F)c2)n(Cc2ccc(Cl)cc2)c1=O [Compound R-187] | 21 nM
3 | Cc1cc(/N=c2\[nH]c(=O)n([C@@H](C)[C@@H](C)C(=O)O)c(=O)n2Cc2ccc(Cl)cc2)ccc1Oc1cncc(F)c1 [Compound R-188] | 9 nM
4 | C[C@@H](C(=O)O)[C@H](C)n1c(=O)[nH]/c(=N\c2ccc(Oc3cncc(F)c3)c(F)c2)n(Cc2ccc(Cl)cc2)c1=O [Compound R-189] | 8 nM
5 | COc1ccc(Oc2ccc(/N=c3\[nH]c(=O)n(CC(C)(C)C(=O)O)c(=O)n3Cc3ccc(Cl)cc3)cc2)nn1 [Compound R-190] | 9 nM
6 | COc1ccc(Oc2ccc(/N=c3\[nH]c(=O)n([C@@H](C)[C@@H](C)C(=O)O)c(=O)n3Cc3ccc(Cl)cc3)cc2)nn1 [Compound R-191] | 12 nM
7 | C[C@@H](Cn1c(=O)[nH]/c(=N\c2ccc(Oc3nc4ccccc4s3)cc2)n(Cc2ccc(Cl)cc2)c1=O)C(=O)O [Compound R-192] | 4 nM
8 | COC(=O)C(C)(C)Cn1c(=O)[nH]/c(=N\c2ccc(Oc3cncc(C)c3)cc2)n(Cc2ccc(Cl)cc2)c1=O [Compound R-193] | 11 nM
9 | Cc1cncc(Oc2ccc(/N=c3\[nH]c(=O)n(CC(C)(C)C(=O)O)c(=O)n3Cc3ccc(Cl)cc3)cc2)c1 [Compound R-194] | 13 nM
10 | C[C@@H](Cn1c(=O)[nH]/c(=N\c2ccc(Oc3ncns3)cc2)n(Cc2ccc(Cl)cc2)c1=O)C(=O)O [Compound R-195] | 9 nM
11 | C[C@@H](Cn1c(=O)[nH]/c(=N\c2ccc(Oc3ccc(F)nn3)cc2)n(Cc2ccc(Cl)cc2)c1=O)C(=O)O [Compound R-196] | 11 nM
12 | C[C@@H](Cn1c(=O)[nH]/c(=N\c2ccc(Oc3ccc(Cl)nn3)cc2)n(Cc2ccc(Cl)cc2)c1=O)C(=O)O [Compound R-197] | 7 nM
13 | C[C@@H](Cn1c(=O)[nH]/c(=N\c2ccc(Oc3cc(F)ncn3)cc2)n(Cc2ccc(Cl)cc2)c1=O)C(=O)O [Compound R-198] | 9 nM
14 | COC(=O)[C@@H](C)Cn1c(=O)[nH]/c(=N\c2ccc(Oc3cncc(OC)c3)cc2)n(Cc2ccc(Cl)cc2)c1=O [Compound R-199] | 7 nM
15 | COC(=O)C(C)(C)Cn1c(=O)[nH]/c(=N\c2ccc(Oc3cncc(OC)c3)cc2)n(Cc2ccc(Cl)cc2)c1=O [Compound R-200] | 8 nM
16 | COc1cncc(Oc2ccc(/N=c3\[nH]c(=O)n(C[C@H](C)C(=O)O)c(=O)n3Cc3ccc(Cl)cc3)cc2)c1 [Compound R-201] | 8 nM
17 | COc1cncc(Oc2ccc(/N=c3\[nH]c(=O)n(CC(C)(C)C(=O)O)c(=O)n3Cc3ccc(Cl)cc3)cc2)c1 [Compound R-202] | 12 nM
18 | C[C@@H](Cn1c(=O)[nH]/c(=N\c2ccc(Oc3nc4ncccc4o3)cc2)n(Cc2ccc(Cl)cc2)c1=O)C(=O)O [Compound R-204] | 8 nM
19 | COC(=O)[C@@H](C)Cn1c(=O)[nH]/c(=N\c2ccc(Oc3cccnc3)cc2)n(Cc2ccc(Cl)cc2)c1=O [Compound R-205] | 8 nM
20 | COC(=O)[C@@H](C)Cn1c(=O)[nH]/c(=N\c2ccc(Oc3ccncc3)cc2)n(Cc2ccc(Cl)cc2)c1=O [Compound R-206] | 5 nM

Row | SMILES | IC50
21 | C[C@@H](Cn1c(=O)[nH]/c(=N\c2ccc(Oc3cccnc3)cc2)n(Cc2ccc(Cl)cc2)c1=O)C(=O)O [Compound R-207] | 9 nM
22 | C[C@@H](Cn1c(=O)[nH]/c(=N\c2ccc(Oc3ccncc3)cc2)n(Cc2ccc(Cl)cc2)c1=O)C(=O)O [Compound R-208] | 5 nM
23 | C[C@@H](Cn1c(=O)[nH]/c(=N\c2ccc(Oc3nccnc3Cl)cc2)n(Cc2ccc(Cl)cc2)c1=O)C(=O)O [Compound R-211] | 7 nM
24 | C[C@@H](C(=O)O)[C@H](C)n1c(=O)[nH]/c(=N\c2ccc(Oc3ccnc(C#N)c3)cc2)n(Cc2ccc(Cl)cc2)c1=O [Compound R-212] | 8 nM
25 | COC(=O)[C@H](C)[C@H](C)n1c(=O)[nH]/c(=N\c2ccc(Oc3ncc(C)s3)cc2)n(Cc2ccc(C)cc2)c1=O [Compound R-213] | 12 nM
26 | COC(=O)[C@@H](C)Cn1c(=O)[nH]/c(=N\c2ccc(Oc3ncc(C)s3)cc2)n(Cc2ccc(C)cc2)c1=O [Compound R-214] | 6 nM
27 | COC(=O)C(C)(C)Cn1c(=O)[nH]/c(=N\c2ccc(Oc3ncc(C)s3)cc2)n(Cc2ccc(C)cc2)c1=O [Compound R-215] | 6 nM
28 | Cc1ccc(Cn2c(=O)n([C@@H](C)[C@@H](C)C(=O)O)c(=O)[nH]/c2=N\c2ccc(Oc3ncc(C)s3)cc2)cc1 [Compound R-217] | 8 nM
29 | Cc1ccc(Cn2c(=O)n(C[C@H](C)C(=O)O)c(=O)[nH]/c2=N\c2ccc(Oc3ncc(C)s3)cc2)cc1 [Compound R-218] | 6 nM
30 | Cc1ccc(Cn2c(=O)n(CC(C)(C)C(=O)O)c(=O)[nH]/c2=N\c2ccc(Oc3ncc(C)s3)cc2)cc1 [Compound R-219] | 11 nM
31 | CCc1oc2ccc(/N=c3\[nH]c(=O)n(C[C@H](C)C(=O)OC)c(=O)n3Cc3ccc(C)cc3)cc2c1C [Compound R-220] | 22 nM
32 | COC(=O)[C@@H](C)Cn1c(=O)[nH]/c(=N\c2ccc(Oc3ccnc(F)c3)cc2)n(Cc2ccc(C)cc2)c1=O [Compound R-221] | 5 nM
33 | CCc1oc2ccc(/N=c3\[nH]c(=O)n(C[C@H](C)C(=O)O)c(=O)n3Cc3ccc(C)cc3)cc2c1C [Compound R-222] | 9 nM
34 | Cc1ccc(Cn2c(=O)n(C[C@H](C)C(=O)O)c(=O)[nH]/c2=N\c2ccc(Oc3ccnc(F)c3)cc2)cc1 [Compound R-223] | 7 nM
35 | C[C@@H](C(=O)O)[C@H](C)n1c(=O)[nH]/c(=N\c2ccc(Oc3cnc(C#N)cn3)cc2)n(Cc2ccc(Cl)cc2)c1=O [Compound R-224] | 12 nM
36 | COC(=O)CCn1c(=O)[nH]/c(=N\c2ccc(Oc3ccccn3)cc2)n(Cc2ccc(Cl)cc2)c1=O [Compound R-225] | 4 nM
37 | COC(=O)CCn1c(=O)[nH]/c(=N\c2ccc(Oc3ccccn3)cc2)n(Cc2ccc(C)cc2)c1=O [Compound R-226] | 3 nM
38 | COC(=O)CCn1c(=O)[nH]/c(=N\c2ccc(-n3ccccc3=O)cc2)n(Cc2ccc(Cl)cc2)c1=O [Compound R-227] | 35 nM
39 | NC(=O)CCn1c(=O)[nH]/c(=N\c2ccc(Oc3ccccn3)cc2)n(Cc2ccc(Cl)cc2)c1=O [Compound R-229] | 7 nM
40 | CNC(=O)CCn1c(=O)[nH]/c(=N\c2ccc(Oc3ccccn3)cc2)n(Cc2ccc(Cl)cc2)c1=O [Compound R-230] | 5 nM

Row | SMILES | IC50
41 | C[C@@H](Cn1c(=O)[nH]/c(=N\c2ccc(Oc3ccc4nccn4n3)cc2)n(Cc2ccc(Cl)cc2)c1=O)C(=O)O [Compound R-231] | 5 nM
42 | COc1nc(=O)n(Cc2ccc(Cl)cc2)/c(=N/c2ccc(Oc3cccc(C#N)n3)cc2)[nH]1 [Compound R-232] | 61 nM
43 | CC(C)(C)n1c(=O)[nH]/c(=N\c2ccc(Oc3cccc(C(N)=O)n3)cc2)n(Cc2ccc(Cl)cc2)c1=O [Compound R-233] | 318 nM
44 | CC1(C)OC[C@H](Cn2c(=O)[nH]/c(=N\c3ccc(Oc4ccccn4)cc3)n(Cc3ccc(Cl)cc3)c2=O)O1 [Compound R-234] | 3 nM
45 | O=c1[nH]/c(=N\c2ccc(Oc3ccccn3)cc2)n(Cc2ccc(Cl)cc2)c(=O)n1C[C@H](O)CO [Compound R-235] | 10 nM
46 | CC1(Cn2c(=O)[nH]/c(=N\c3ccc(Oc4ccccn4)cc3)n(Cc3ccc(Cl)cc3)c2=O)COC(C)(C)OC1 [Compound R-236] | 4 nM
47 | Cc1nccnc1Oc1ccc(/N=c2\[nH]c(=O)n(C[C@H](C)C(=O)O)c(=O)n2Cc2ccc(Cl)cc2)cc1 [Compound R-237] | 9 nM
48 | COC(=O)Cn1c(=O)[nH]/c(=N\c2ccc(Oc3ccccn3)cc2)n(Cc2ccc(Cl)cc2)c1=O [Compound R-238, 1-(4-chlorobenzyl)-3-(methoxycarbonylmethyl)-6-[4-(2-pyridyloxy)phenylimino]-1,3,5-triazinane-2,4-dione] | 7 nM
49 | O=C(O)Cn1c(=O)[nH]/c(=N\c2ccc(Oc3ccccn3)cc2)n(Cc2ccc(Cl)cc2)c1=O [Compound R-239, 1-(4-chlorobenzyl)-3-(hydroxylcarbonylmethyl)-6-[4-(2-pyridyloxy)phenylimino]-1,3,5-triazinane-2,4-dione] | 399 nM
50 | NC(=O)Cn1c(=O)[nH]/c(=N\c2ccc(Oc3ccccn3)cc2)n(Cc2ccc(Cl)cc2)c1=O [Compound R-240, 1-(4-chlorobenzyl)-3-(carbamoylmethyl)-6-[4-(2-pyridyloxy)phenylimino]-1,3,5-triazinane-2,4-dione] | 11 nM
51 | CNC(=O)Cn1c(=O)[nH]/c(=N\c2ccc(Oc3ccccn3)cc2)n(Cc2ccc(Cl)cc2)c1=O [Compound R-241] | 9 nM
52 | O=C(Cn1c(=O)[nH]/c(=N\c2ccc(Oc3ccccn3)cc2)n(Cc2ccc(Cl)cc2)c1=O)NCCO [Compound R-242] | 5 nM
53 | O=C(Cn1c(=O)[nH]/c(=N\c2ccc(Oc3ccccn3)cc2)n(Cc2ccc(Cl)cc2)c1=O)NCC(F)(F)F [Compound R-243] | 4 nM
54 | CC(CO)(CO)Cn1c(=O)[nH]/c(=N\c2ccc(Oc3ccccn3)cc2)n(Cc2ccc(Cl)cc2)c1=O [Compound R-244] | 4 nM
55 | CC1(C)OCC(Cn2c(=O)[nH]/c(=N\c3ccc(Oc4ccccn4)cc3)n(Cc3ccc(Cl)cc3)c2=O)CO1 [Compound R-245] | 4 nM
56 | C[C@@H](Cn1c(=O)[nH]/c(=N\c2ccc(Oc3cnc(C#N)nc3)cc2)n(Cc2ccc(Cl)cc2)c1=O)C(=O)O [Compound R-246] | 6 nM
57 | CC1(C)OC[C@@H](Cn2c(=O)[nH]/c(=N\c3ccc(Oc4ccccn4)cc3)n(Cc3ccc(Cl)cc3)c2=O)O1 [Compound R-247] | 5 nM
58 | O=c1[nH]/c(=N\c2ccc(Oc3ccccn3)cc2)n(Cc2ccc(Cl)cc2)c(=O)n1CCCOC1CCCCO1 (centres unmarked) [Compound R-248] | 5 nM
59 | C[C@@H](C(=O)O)[C@H](C)n1c(=O)[nH]/c(=N\c2ccc(Oc3cnc(C#N)nc3)cc2)n(Cc2ccc(Cl)cc2)c1=O [Compound R-249] | 6 nM

Source: patent publication US10065941B2, “Aminotriazine derivative and pharmaceutical composition comprising the same” (Shionogi & Co., Ltd., priority 2013, dated 2018)
